The target in assay [1] is human Cereblon WT GST-tagged protein (Homo sapiens (Human), UniProt Q96SW2). Put plainly: CRBN-binding affinity, HTRF (CEREBLON BINDING kit, CISBIO). The conditions noted are these: HTRF inhibitory activity. The procedure, abridged: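 Compounds were mixed with GST-tagged human Cereblon WT protein, then with Thalidomide-Red tracer and GST Eu antibody, and binding was read by HTRF. Inhibition rate was calculated from 620 nm emission relative to blank control wells (no protein) and solvent control wells.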
Chain of human Cereblon WT GST-tagged protein (Q96SW2 whole entry): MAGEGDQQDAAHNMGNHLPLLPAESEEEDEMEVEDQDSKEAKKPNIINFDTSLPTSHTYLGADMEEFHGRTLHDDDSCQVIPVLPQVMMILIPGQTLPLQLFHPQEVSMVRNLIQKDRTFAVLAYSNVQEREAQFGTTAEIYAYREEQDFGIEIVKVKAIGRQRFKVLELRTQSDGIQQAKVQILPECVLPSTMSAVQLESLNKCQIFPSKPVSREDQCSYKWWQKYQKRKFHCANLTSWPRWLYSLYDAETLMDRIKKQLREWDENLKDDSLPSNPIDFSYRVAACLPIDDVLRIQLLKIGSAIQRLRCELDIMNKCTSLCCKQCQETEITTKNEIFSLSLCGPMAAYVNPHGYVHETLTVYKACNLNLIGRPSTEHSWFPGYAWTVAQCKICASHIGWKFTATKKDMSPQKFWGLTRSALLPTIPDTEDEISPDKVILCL
A general note: In TR-FRET formats the signal depends on donor and acceptor labels being close together.

Another assay concerns the target IKZF3 (Homo sapiens (Human), UniProt Q96SW2+Q9UKT9). Put plainly: Western blot, substrate protein expression in hPBMC: IKZF3. The conditions noted are these: hPBMC, compound 500 nM, 24 hours, Western blot. Format: cell-based. In a few lines:
(§1)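 hPBMC, 1×10^6 cells/mL, 24 h compound exposure; RIPA lysis, BCA protein assay, SDS-PAGE, NC membrane immunoblot. Densitometry vs internal control → % protein remaining; degradation % = 100% − remaining; DC50 = conc. at 50% of DMSO band signal.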

Assay [2] concerns MM.1S cells (human multiple myeloma cells). Put plainly: Tumor cell proliferation inhibition, CCK-8. The format is cell-based. The conditions noted are these: MM1.S, MM.1S cells, CCK-8, read-out: inhibitory activity (IC50, nM) MM.1S. As to the method: The tumor cells used herein were cultured in a cell culture medium listed in table 2 at 37° C. in an incubator with 5% CO2. Prior to experimentation, all cells used were correctly identified by STR profiling, and tested negative for mycoplasma through routine screenings.
IC50 values of the compounds of the present disclosure (including the compounds in Table 1 and the Examples 1-305 compounds) were measured using the Meilun Cell Counting Kit-8 kit from Dalian Meilun Biotech Co., Ltd. Assay details are as follows: tumor cells were seeded in a 96-well plate at a density listed in Table 5. After 24 h, 100 μL of the inoculated cells were treated with 0.5 μL of the compounds of the present disclosure (including the compounds in Table 1 and the Examples 1-305 compounds) at 10 different successively decreasing concentrations (starting at the highest concentration of 10 μM; 5-fold serial dilutions). After the cells were treated with the compounds of the present disclosure for a period of time, the cell viability detection reagent was added to the culture medium for cell viability assessment according to the instructions provided with the CCK-8 kit. […] The growth inhibition of the compounds of the present disclosure on cells was plotted by Prism Graphpad software, and the IC50 values of the compounds of the present disclosure were calculated therefrom.

The next assay concerns the target GSPT1 (Homo sapiens (Human), UniProt P15170+Q96SW2). Put plainly: Western blot, substrate protein expression in hPBMC: GSPT1. Format: cell-based. The conditions noted are these: hPBMC, compound 500 nM, 24 hours, Western blot. The procedure, abridged:
as §1
On the technique in general: In western blotting, separated proteins are transferred to a membrane and probed.

The next assay deals with IKZF1 (Homo sapiens (Human), UniProt Q13422+Q96SW2). Put plainly: Western blot, substrate protein expression in hPBMC: IKZF1. Format: cell-based. The conditions noted are these: hPBMC, compound 500 nM, 24 hours, Western blot. The procedure, abridged: as §1
Chain of IKZF1 (Q13422 whole entry): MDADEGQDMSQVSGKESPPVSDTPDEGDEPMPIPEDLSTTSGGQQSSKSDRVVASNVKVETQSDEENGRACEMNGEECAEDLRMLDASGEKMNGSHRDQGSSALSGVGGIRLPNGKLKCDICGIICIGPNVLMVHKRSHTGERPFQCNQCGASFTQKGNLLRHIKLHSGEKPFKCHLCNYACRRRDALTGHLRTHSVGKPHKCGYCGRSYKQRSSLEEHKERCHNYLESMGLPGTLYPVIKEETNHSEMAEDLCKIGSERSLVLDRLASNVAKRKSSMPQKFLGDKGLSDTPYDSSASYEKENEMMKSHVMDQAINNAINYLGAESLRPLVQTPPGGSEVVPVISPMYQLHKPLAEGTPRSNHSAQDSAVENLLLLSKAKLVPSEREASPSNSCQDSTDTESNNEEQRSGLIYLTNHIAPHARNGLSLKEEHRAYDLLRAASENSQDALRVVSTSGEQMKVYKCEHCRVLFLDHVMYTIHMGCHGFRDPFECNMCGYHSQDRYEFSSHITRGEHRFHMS
Chain of IKZF1 (Q96SW2 whole entry): as the sequence (Q96SW2 whole entry) above
Chain of IKZF1 (Q16531 whole entry partner): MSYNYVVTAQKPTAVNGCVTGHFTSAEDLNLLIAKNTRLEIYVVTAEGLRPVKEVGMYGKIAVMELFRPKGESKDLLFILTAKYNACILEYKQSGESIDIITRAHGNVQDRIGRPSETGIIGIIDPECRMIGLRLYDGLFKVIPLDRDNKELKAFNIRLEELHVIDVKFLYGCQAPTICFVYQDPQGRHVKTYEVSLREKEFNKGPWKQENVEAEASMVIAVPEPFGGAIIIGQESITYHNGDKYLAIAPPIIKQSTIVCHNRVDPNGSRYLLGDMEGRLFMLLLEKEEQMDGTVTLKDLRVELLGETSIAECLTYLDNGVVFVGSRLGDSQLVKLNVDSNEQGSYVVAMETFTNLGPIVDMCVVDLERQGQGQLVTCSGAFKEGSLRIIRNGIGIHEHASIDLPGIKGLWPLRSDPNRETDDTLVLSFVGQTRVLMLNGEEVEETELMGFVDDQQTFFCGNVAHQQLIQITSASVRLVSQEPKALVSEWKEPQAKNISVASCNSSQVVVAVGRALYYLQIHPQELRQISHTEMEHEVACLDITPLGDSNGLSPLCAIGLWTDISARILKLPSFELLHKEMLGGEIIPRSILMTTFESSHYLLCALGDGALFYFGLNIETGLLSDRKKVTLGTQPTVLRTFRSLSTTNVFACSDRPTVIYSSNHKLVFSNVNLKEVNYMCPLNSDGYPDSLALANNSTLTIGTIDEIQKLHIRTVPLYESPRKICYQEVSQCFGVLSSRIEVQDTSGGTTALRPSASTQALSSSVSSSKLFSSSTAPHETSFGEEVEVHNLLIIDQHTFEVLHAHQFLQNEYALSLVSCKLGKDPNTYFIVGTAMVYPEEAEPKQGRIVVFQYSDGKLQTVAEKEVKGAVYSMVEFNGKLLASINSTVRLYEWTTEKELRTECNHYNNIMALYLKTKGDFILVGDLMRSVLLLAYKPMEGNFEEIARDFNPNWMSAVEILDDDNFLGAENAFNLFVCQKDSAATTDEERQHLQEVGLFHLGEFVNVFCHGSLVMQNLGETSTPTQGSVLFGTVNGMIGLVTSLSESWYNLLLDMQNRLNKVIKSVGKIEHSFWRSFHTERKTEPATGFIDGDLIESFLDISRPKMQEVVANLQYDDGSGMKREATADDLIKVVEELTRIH

Molecules are shown by their SMILES. Bounds are passed on as bounds.

Chain of GSPT1 (P15170 whole entry): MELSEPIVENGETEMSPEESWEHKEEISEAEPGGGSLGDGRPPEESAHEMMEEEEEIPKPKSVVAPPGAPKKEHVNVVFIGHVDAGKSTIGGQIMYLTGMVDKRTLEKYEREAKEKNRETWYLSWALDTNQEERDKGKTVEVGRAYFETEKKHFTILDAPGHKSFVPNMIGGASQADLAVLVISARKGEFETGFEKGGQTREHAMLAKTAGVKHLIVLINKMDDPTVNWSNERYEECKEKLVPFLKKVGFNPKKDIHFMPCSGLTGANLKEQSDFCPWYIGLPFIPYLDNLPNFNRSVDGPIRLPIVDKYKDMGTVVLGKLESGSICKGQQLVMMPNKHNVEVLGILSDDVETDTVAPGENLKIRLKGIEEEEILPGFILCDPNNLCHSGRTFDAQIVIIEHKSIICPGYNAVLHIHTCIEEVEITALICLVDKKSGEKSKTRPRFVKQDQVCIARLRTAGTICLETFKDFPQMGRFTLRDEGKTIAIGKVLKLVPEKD
Chain of GSPT1 (Q96SW2 whole entry): as the sequence (Q96SW2 whole entry) above
Chain of GSPT1 (Q16531 whole entry partner): as the sequence (Q16531 whole entry partner) above
Chain of IKZF3 (Q9UKT9 whole entry): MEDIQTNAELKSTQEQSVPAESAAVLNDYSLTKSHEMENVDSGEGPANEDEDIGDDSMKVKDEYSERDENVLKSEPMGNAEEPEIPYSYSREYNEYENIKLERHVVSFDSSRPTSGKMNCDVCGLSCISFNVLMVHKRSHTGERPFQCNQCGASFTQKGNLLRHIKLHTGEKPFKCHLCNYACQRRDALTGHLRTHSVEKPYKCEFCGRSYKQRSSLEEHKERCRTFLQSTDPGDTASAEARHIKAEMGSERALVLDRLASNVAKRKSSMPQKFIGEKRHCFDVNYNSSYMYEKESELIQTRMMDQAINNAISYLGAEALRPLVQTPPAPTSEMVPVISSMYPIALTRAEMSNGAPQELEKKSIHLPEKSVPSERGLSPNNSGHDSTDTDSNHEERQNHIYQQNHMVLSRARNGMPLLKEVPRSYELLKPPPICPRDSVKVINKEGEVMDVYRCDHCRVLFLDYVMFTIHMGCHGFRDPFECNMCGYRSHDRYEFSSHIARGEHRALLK
Chain of IKZF3 (Q96SW2 whole entry): as the sequence (Q96SW2 whole entry) above
Chain of IKZF3 (Q16531 whole entry partner): as the sequence (Q16531 whole entry partner) above

One may read the IC50 as the midpoint of a concentration-inhibition curve. For the molecule `O=C1CCC(N2Cc3cc(CCN4CCN(C(c5ccccc5)c5ccccc5)CC4)ccc3C2=O)C(=O)N1` (centres unmarked) [GT-05696, 3-(5-(2-(4-benzhydrylpiperazin-1-yl)ethyl)-1-oxoisoindolin-2-yl)piperidine-2,6-dione], the figures for the half-inhibitory concentration (IC50) in assay [1] and in assay [2] were less than 500 nM and 50 to 100 nM, respectively. The “substrate protein remaining % IKZF3” value at IKZF3 was “A (A represents 0% ≤ substrate protein remaining % ≤ 50%)”. The “substrate protein remaining % GSPT1” value at GSPT1 is given as “A (A represents 0% ≤ substrate protein remaining % ≤ 50%)”. Also, the “substrate protein remaining % IKZF1” value at IKZF1 was “A (A represents 0% ≤ substrate protein remaining % ≤ 50%)”.

In turn, `O=C1CCC(N2Cc3cc(CN4CCN(C(c5ccccc5)c5ccccc5)CC4C(F)(F)F)ccc3C2=O)C(=O)N1` (centres unmarked) [GT-06095, 3-(5-((4-benzhydryl-2-(trifluoromethyl)piperazin-1-yl)methyl)-1-oxoisoindolin-2-yl)piperidine-2,6-dione] returned an IC50 in assay [1] of 500 to 1000 nM. For the same molecule, the “substrate protein remaining % IKZF3” value on IKZF3 was “B (B represents substrate protein remaining % > 50%)”. Further, the “substrate protein remaining % GSPT1” value at GSPT1 was “A (A represents 0% ≤ substrate protein remaining % ≤ 50%)”. Besides, the “substrate protein remaining % IKZF1” value at IKZF1 is recorded as “B (B represents substrate protein remaining % > 50%)”.

For the molecule `O=C1CCC(N2Cc3c(ccc(CN4CCN(C(c5ccccc5)c5ccccc5)CC4C(F)(F)F)c3F)C2=O)C(=O)N1` (centres unmarked) [GT-06096, 3-(5-((4-benzhydryl-2-(trifluoromethyl)piperazin-1-yl)methyl)-4-fluoro-1-oxoisoindolin-2-yl)piperidine-2,6-dione], the IC50 in assay [1] lay within 500 to 1000 nM. In addition, the “substrate protein remaining % IKZF3” value at IKZF3 is recorded as “A (A represents 0% ≤ substrate protein remaining % ≤ 50%)”. The “substrate protein remaining % GSPT1” value on GSPT1 is listed as “A (A represents 0% ≤ substrate protein remaining % ≤ 50%)”. At IKZF1, the “substrate protein remaining % IKZF1” value is given as “B (B represents substrate protein remaining % > 50%)”.

Consider `O=C1CCC(N2Cc3cc(CN4CCN(C(c5ccccc5)c5ccccc5)CC4C(F)(F)F)c(F)cc3C2=O)C(=O)N1` (centres unmarked) [GT-06097, 3-(5-((4-benzhydryl-2-(trifluoromethyl)piperazin-1-yl)methyl)-6-fluoro-1-oxoisoindolin-2-yl)piperidine-2,6-dione], for which the IC50 in assay [1] lay in the range of 500 to 1000 nM. Also, the “substrate protein remaining % IKZF3” value on IKZF3 is given as “B (B represents substrate protein remaining % > 50%)”. At GSPT1, the “substrate protein remaining % GSPT1” value is on record as “A (A represents 0% ≤ substrate protein remaining % ≤ 50%)”. In addition, the “substrate protein remaining % IKZF1” value on IKZF1 was “B (B represents substrate protein remaining % > 50%)”.

For the molecule `O=C1CCC(N2C(=O)c3ccc(CN4CCN(C(c5ccccc5)c5cccnc5)CC4)cc3C2=O)C(=O)N1` (centres unmarked) [GT-06114, 2-(2,6-dioxopiperidin-3-yl)-5-((4-(phenyl(pyridin-3-yl)methyl)piperazin-1-yl)methyl) isoindoline-1,3-dione], the IC50 in assay [1] was 1000 to 1900 nM. Moreover, the “substrate protein remaining % IKZF3” value at IKZF3 was “B (B represents substrate protein remaining % > 50%)”. The “substrate protein remaining % GSPT1” value on GSPT1 is “A (A represents 0% ≤ substrate protein remaining % ≤ 50%)”. Also, the “substrate protein remaining % IKZF1” value on IKZF1 is recorded as “B (B represents substrate protein remaining % > 50%)”.

The molecule `O=C1CCC(N2Cc3cccc(CN4CCN(C(c5cccc(F)c5)c5cccc(F)c5)CC4)c3C2=O)C(=O)N1` (centres unmarked) [GT-06117, 3-(7-((4-(bis(3-fluorophenyl)methyl)piperazin-1-yl)methyl)-1-oxoisoindolin-2-yl)piperidine-2,6-dione] registered an IC50 in assay [1] of 500 to 1000 nM. The “substrate protein remaining % IKZF3” value at IKZF3 is “B (B represents substrate protein remaining % > 50%)”. The “substrate protein remaining % GSPT1” value on GSPT1 is “A (A represents 0% ≤ substrate protein remaining % ≤ 50%)”. Besides, on IKZF1, the “substrate protein remaining % IKZF1” value is “B (B represents substrate protein remaining % > 50%)”.

In assay [1], `O=C1CCC(N2C(=O)c3ccc(C(=O)N4CCN(C(c5ccccc5F)c5ccccc5F)CC4)cc3C2=O)C(=O)N1` (centres unmarked) [GT-06141, 5-(4-(bis(2-fluorophenyl)methyl)piperazine-1-carbonyl)-2-(2,6-dioxopiperidin-3-yl) isoindoline-1,3-dione] came in with an IC50 of 500 to 1000 nM. The “substrate protein remaining % IKZF3” value on IKZF3 is reported as “B (B represents substrate protein remaining % > 50%)”. For the same molecule, the “substrate protein remaining % GSPT1” value on GSPT1 is given as “A (A represents 0% ≤ substrate protein remaining % ≤ 50%)”. Besides, the “substrate protein remaining % IKZF1” value at IKZF1 is “B (B represents substrate protein remaining % > 50%)”.

Take `O=C1CCC(N2Cc3cc(C(=O)N4CCN(C(c5ccccc5)c5cccnc5)CC4)ccc3C2=O)C(=O)N1` (centres unmarked) [GT-06142, 3-(1-oxo-5-(4-(phenyl(pyridin-3-yl)methyl)piperazine-1-carbonyl)isoindolin-2-yl)piperidine-2,6-dione]: the IC50 in assay [1] fell in the range of 500 to 1000 nM. Moreover, the “substrate protein remaining % IKZF3” value on IKZF3 is given as “B (B represents substrate protein remaining % > 50%)”. In addition, the “substrate protein remaining % GSPT1” value at GSPT1 was “A (A represents 0% ≤ substrate protein remaining % ≤ 50%)”. In addition, the “substrate protein remaining % IKZF1” value on IKZF1 is listed as “B (B represents substrate protein remaining % > 50%)”.

For `O=C1CCC(N2Cc3cc(C(=O)N4CCN(C(c5cccc(F)c5)c5cccc(F)c5)CC4)cc(F)c3C2=O)C(=O)N1` (centres unmarked) [GT-06147, 3-(5-(4-(bis(3-fluorophenyl)methyl)piperazine-1-carbonyl)-7-fluoro-1-oxoisoindolin-2-yl)piperidine-2,6-dione], in assay [1], the IC50 was less than 500 nM. On IKZF3, the “substrate protein remaining % IKZF3” value is “B (B represents substrate protein remaining % > 50%)”. On GSPT1, the “substrate protein remaining % GSPT1” value is reported as “A (A represents 0% ≤ substrate protein remaining % ≤ 50%)”. Further, the “substrate protein remaining % IKZF1” value at IKZF1 is “B (B represents substrate protein remaining % > 50%)”.

As to `O=C1CCC(N2Cc3c(C(=O)N4CCN(C(c5cccc(F)c5)c5cccc(F)c5)CC4)cccc3C2=O)C(=O)N1` (centres unmarked) [GT-06148, 3-(4-(4-(bis(3-fluorophenyl)methyl)piperazine-1-carbonyl)-1-oxoisoindolin-2-yl)piperidine-2,6-dione], in assay [1], the 50% inhibitory concentration (IC50) is less than 500 nM. Besides, the “substrate protein remaining % IKZF3” value at IKZF3 is recorded as “B (B represents substrate protein remaining % > 50%)”. Also, the “substrate protein remaining % GSPT1” value on GSPT1 is “A (A represents 0% ≤ substrate protein remaining % ≤ 50%)”. The “substrate protein remaining % IKZF1” value on IKZF1 is reported as “B (B represents substrate protein remaining % > 50%)”.

In the case of `O=C1CCC(N2Cc3cc(CN4CCN(C(c5ccc(C(F)(F)F)cc5)c5ccc(C(F)(F)F)cc5)CC4)ccc3C2=O)C(=O)N1` (centres unmarked) [GT-06199, 3-(5-((4-(bis(4-(trifluoromethyl)phenyl)methyl)piperazin-1-yl)methyl)-1-oxoisoindolin-2-yl)piperidine-2,6-dione], the “substrate protein remaining % IKZF3” value at IKZF3 is recorded as “A (A represents 0% ≤ substrate protein remaining % ≤ 50%)”. For the same molecule, the IC50 in assay [2] was 10 to 50 nM. Moreover, the “substrate protein remaining % GSPT1” value on GSPT1 was “A (A represents 0% ≤ substrate protein remaining % ≤ 50%)”. The “substrate protein remaining % IKZF1” value at IKZF1 is on record as “A (A represents 0% ≤ substrate protein remaining % ≤ 50%)”.

For the molecule `O=C1CCC(N2C(=O)c3ccc(C(=O)N4CCN(C(c5cccc(F)c5)c5cccc(F)c5)CC4)cc3C2=O)C(=O)N1` (centres unmarked) [GT-06206, 5-(4-(bis(3-fluorophenyl)methyl)piperazine-1-carbonyl)-2-(2,6-dioxopiperidin-3-yl) isoindoline-1,3-dione], the IC50 in assay [1] is 1000 to 1900 nM. Further, on IKZF3, the “substrate protein remaining % IKZF3” value is given as “B (B represents substrate protein remaining % > 50%)”. Further, the “substrate protein remaining % GSPT1” value at GSPT1 was “A (A represents 0% ≤ substrate protein remaining % ≤ 50%)”. For the same molecule, the “substrate protein remaining % IKZF1” value at IKZF1 is “B (B represents substrate protein remaining % > 50%)”.

`O=C1CCC(N2Cc3cc(CN4CCN(C(c5ccccc5)c5ccc(Br)cc5)CC4)ccc3C2=O)C(=O)N1` (centres unmarked) [GT-06640, 3-(5-((4-((4-bromophenyl) (phenyl)methyl)piperazin-1-yl)methyl)-1-oxoisoindolin-2-yl)piperidine-2,6-dione] returned an IC50 in assay [1] of 500 to 1000 nM. The “substrate protein remaining % IKZF3” value at IKZF3 is recorded as “A (A represents 0% ≤ substrate protein remaining % ≤ 50%)”. In addition, the “substrate protein remaining % GSPT1” value at GSPT1 is “A (A represents 0% ≤ substrate protein remaining % ≤ 50%)”. Besides, the “substrate protein remaining % IKZF1” value on IKZF1 is recorded as “A (A represents 0% ≤ substrate protein remaining % ≤ 50%)”.

These data come from US20250320193A1, “OXOISOINDOLINYL SUBSTITUTED PIPERIDINEDIONE DERIVATIVE AND USE THEREOF” (GLUETACS THERAPEUTICS (SHANGHAI) CO., LTD., priority 2022, published 2025).
